Among the test systems are SK-MEL-28 melanoma; EKVX NSCLC; KM12 colon; HS 578T breast; T-47D breast; CCRF-CEM leukemia; SK-OV-3 ovarian.
Assay in all cases: growth of human tumour cells (NCI), 48 h

Structures are written as SMILES.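 Protocol summary: plate cells (96-well), add compound at 5 concentrations, incubate 48 h, interpolate endpoints linearly. Definition used: TGI = concentration required for complete inhibition of growth.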

On to `CCCCCCC1OC23OC1CCC2C(O)CCC3O` (stereo not given), for which the TGI in the assay with SK-MEL-28 melanoma, with EKVX NSCLC, in the assay on KM12 colon and in the assay on HS 578T breast was > 100 µM throughout.

`COC(=O)c1ccc(CCC2=CC(=O)C=CC2=O)cc1`: the TGI was found to be 8.79 µM in the assay with T-47D breast; 26 µM in the assay on SK-MEL-28 melanoma; 2 µM with CCRF-CEM leukemia; 38.7 µM with EKVX NSCLC; 27 µM with KM12 colon; 75.2 µM in the assay on HS 578T breast.

With `Clc1ccc(C(OCn2ccnc2)c2nc3ccccc3[nH]2)c(Cl)c1` (stereo not given), the TGI in the assay with T-47D breast, in the assay with SK-MEL-28 melanoma, in the assay with CCRF-CEM leukemia, with EKVX NSCLC, with KM12 colon and in the assay on HS 578T breast was > 100 µM in each case.

As to `N#CC1=C(S)N(C2OC(CO)C(O)C(O)C2O)C(c2ccccc2)=CC1c1ccco1` (stereo not given), the TGI in the assay on T-47D breast was 99.5 µM; in the assay on SK-MEL-28 melanoma, > 100 µM; in the assay on CCRF-CEM leukemia, > 100 µM; with KM12 colon it was > 100 µM; in the assay with HS 578T breast, > 100 µM.

Regarding `C(=NC12CC3CC(CC(C3)C1)C2)C1CCCCC1`, the TGI with CCRF-CEM leukemia, in the assay on EKVX NSCLC, in the assay on KM12 colon and in the assay with HS 578T breast was > 100 µM throughout.

Turning to `O=C(O)CCC(NC(=O)c1ccc(Nc2nc3ccc(C(F)(F)F)cc3nc2C(=O)O)cc1)C(=O)O` (stereo not given), the TGI with T-47D breast, in the assay with CCRF-CEM leukemia, with EKVX NSCLC, in the assay with KM12 colon and in the assay on HS 578T breast was > 100 µM in each case.

`COc1cc2c(cc1OCCCOc1cc3c(cc1OC)C(=O)N1CCC[C@H]1C(=O)N3)N=C[C@@H]1CCCN1C2=O`: the TGI in the assay with T-47D breast came to 77.3 µM; in the assay on SK-MEL-28 melanoma, 46.8 µM; in the assay on EKVX NSCLC, 46.4 µM; in the assay on KM12 colon it was 67 µM; in the assay on HS 578T breast, 84.4 µM.

As for `O=C1/C(=C/c2ccc(Br)s2)NC(=S)N1CN1CCCCC1`, the TGI in the assay on T-47D breast, with SK-MEL-28 melanoma, in the assay on EKVX NSCLC, in the assay with KM12 colon and in the assay with HS 578T breast was > 100 µM in each case.

Turning to `NS(=O)(=O)c1c(O)c2ccccc2oc1=O`, the TGI in the assay with T-47D breast, in the assay with SK-MEL-28 melanoma, in the assay with CCRF-CEM leukemia, with EKVX NSCLC, in the assay with KM12 colon and in the assay with HS 578T breast was > 100 µM throughout.

Take `COC(=O)/C=C1\C(CO[Si](C)(C)C(C)(C)C)OC(n2ccc(=O)[nH]c2=O)C1O` (stereo not given): the TGI in the assay with T-47D breast is > 22.3 µM; in the assay on SK-MEL-28 melanoma, 21.4 µM; in the assay with CCRF-CEM leukemia it was 26.1 µM; in the assay with EKVX NSCLC, 59.8 µM; in the assay with KM12 colon, > 39.4 µM.

Consider `CS(=O)(=O)CCC1CCC(=O)O1` (stereo not given), for which the TGI in the assay with T-47D breast, in the assay with SK-MEL-28 melanoma, in the assay on EKVX NSCLC, in the assay on KM12 colon and with HS 578T breast was > 100 µM each time.

On to `O[C@@H]1[C@H](OC2c3ccccc3-c3ccccc32)[C@H](OCc2ccccc2)[C@@H]2OC[C@H]1O2`, for which the TGI with T-47D breast, with SK-MEL-28 melanoma, in the assay on CCRF-CEM leukemia, in the assay on EKVX NSCLC, in the assay with KM12 colon and in the assay on HS 578T breast was > 100 µM throughout.

As for `CC[C@@H]1CC[C@@H]2[C@H](CC[C@]3(C)[C@@H](O[N+](=O)[O-])CC[C@@H]23)[C@H]1C(C)=O`, the TGI with T-47D breast is 96.4 µM; in the assay with SK-MEL-28 melanoma, > 100 µM; with CCRF-CEM leukemia, > 100 µM; in the assay on EKVX NSCLC it was 80.9 µM; in the assay on KM12 colon, 80.7 µM; with HS 578T breast it was > 100 µM.

Consider `CCN(C(=O)N[C@@H](CC(C)C)C(=O)NCC(=O)OC)c1ccccc1`, for which the TGI with SK-OV-3 ovarian, in the assay with T-47D breast, in the assay on SK-MEL-28 melanoma, in the assay with CCRF-CEM leukemia, with EKVX NSCLC and in the assay with KM12 colon was > 100 µM each time.

Consider `Nc1nccc(NCC2(CO)CC(CCc3ccccc3)C2)n1` (stereo not given), for which the TGI with T-47D breast came out at 27.6 µM; in the assay on SK-MEL-28 melanoma it was 36.5 µM; with CCRF-CEM leukemia it was 55.5 µM; with EKVX NSCLC it was 46.9 µM; in the assay on KM12 colon, 41.7 µM; with HS 578T breast, 52.9 µM.

`C[C@H]1CCC/C=C/[C@@H]2C[C@H](OC(=O)CN(C)C)C[C@H]2[C@H](O)/C=C/C(=O)O1`: the TGI was > 100 µM with SK-OV-3 ovarian; > 30.9 µM in the assay with SK-MEL-28 melanoma; > 100 µM with CCRF-CEM leukemia; 22.2 µM in the assay on EKVX NSCLC; 0.235 µM in the assay on KM12 colon; > 10.5 µM with HS 578T breast.

As to `CC(=O)n1c2ccc(Br)cc2c2nc3ccccc3nc21`, the TGI in the assay with SK-MEL-28 melanoma, with CCRF-CEM leukemia, in the assay on EKVX NSCLC and in the assay with KM12 colon was > 100 µM each time.

For the compound `CCOC(=O)c1cn(-c2ccc([N+](=O)[O-])cc2)c(=S)n2c1nc1ccccc12`, the TGI with T-47D breast, in the assay with SK-MEL-28 melanoma, with CCRF-CEM leukemia, in the assay on EKVX NSCLC and in the assay on KM12 colon was > 100 µM throughout.

The record behind these values is PubChem BioAssay (NCI).
